Assays:
human mGluR5d = biological target: T1, human mGluR5d (Homo sapiens, UniProt P41594); assay: FLIPR assay, mGluR5 antagonism (intracellular calcium mobilization); type: cell-based; conditions: cells expressing human mGluR5d; read-out: FLIPR hmGluR5d
T1 construct: expressed in transfected cells; the IP3 assay names GHEK cells stably expressing human mGluR5d
Source text: The properties of the compounds of the invention can be analyzed using standard assays for pharmacological activity. Examples of glutamate receptor assays are well known in the art as described in for example Aramori et al., Neuron 8:757 (1992), Tanabe et al., Neuron 8:169 (1992), Miller et al., J. Neuroscience 15: 6103 (1995), Balazs, et al., J. Neurochemistry 69:151 (1997). The methodology described in these publications is incorporated herein by reference. Conveniently, the compounds of the invention can be studied by means of an assay (FLIPR) that measures the mobilization of intracellular calcium, [Ca^2+]i in cells expressing mGluR5 or another assay (IP3) that measures inositol phosphate turnover.
Cells expressing human mGluR5d as described in WO97/05252 are seeded at a density of 100,000 cells per well on collagen coated clear bottom 96-well plates with black sides and experiments are done 24 h following seeding. […] The fluorescence signal is sampled 50 times at 1 second intervals followed by 3 samples at 5 second intervals immediately after each of the two additions. Responses are measured as the difference between the peak height of the response to agonist, less the background fluorescence within the sample period. […]

[1] = Determination of brain to plasma ratio in rat; type: in vivo; conditions: brain and plasma, female Sprague Dawley rats, read-out: Brain/Plasma Ratio of compound in Rat
Method: Brain to plasma ratios are estimated in female Sprague Dawley rats. The compound is dissolved in water or another appropriate vehicle. For determination of brain to plasma ratio the compound is administrated as a subcutaneous, or an intravenous bolus injection, or an intravenous infusion, or an oral administration. At a predetermined time point after the administration a blood sample is taken with cardiac puncture. The rat is terminated by cutting the heart open, and the brain is immediately retained. The blood samples are collected in heparinized tubes and centrifuged within 30 minutes, in order to separate the plasma from the blood cells. The plasma is transferred to 96-well plates and stored at −20° C. until analysis. The brains are divided in half, and each half is placed in a pre-tarred tube and stored at −20° C. until analysis. Prior to the analysis, the brain samples are thawed and 3 ml/g brain tissue of distilled water is added to the tubes. The brain samples are sonicated in an ice bath until the samples are homogenized. Both brain and plasma samples are precipitated with acetonitrile. After centrifugation, the supernatant is diluted with 0.2% formic acid. […] After reconstitution of the residuals the samples are ready for injection onto the HPLC column.

T1 sequence (P41594 21-942 isoform P41594-3 limits assumed): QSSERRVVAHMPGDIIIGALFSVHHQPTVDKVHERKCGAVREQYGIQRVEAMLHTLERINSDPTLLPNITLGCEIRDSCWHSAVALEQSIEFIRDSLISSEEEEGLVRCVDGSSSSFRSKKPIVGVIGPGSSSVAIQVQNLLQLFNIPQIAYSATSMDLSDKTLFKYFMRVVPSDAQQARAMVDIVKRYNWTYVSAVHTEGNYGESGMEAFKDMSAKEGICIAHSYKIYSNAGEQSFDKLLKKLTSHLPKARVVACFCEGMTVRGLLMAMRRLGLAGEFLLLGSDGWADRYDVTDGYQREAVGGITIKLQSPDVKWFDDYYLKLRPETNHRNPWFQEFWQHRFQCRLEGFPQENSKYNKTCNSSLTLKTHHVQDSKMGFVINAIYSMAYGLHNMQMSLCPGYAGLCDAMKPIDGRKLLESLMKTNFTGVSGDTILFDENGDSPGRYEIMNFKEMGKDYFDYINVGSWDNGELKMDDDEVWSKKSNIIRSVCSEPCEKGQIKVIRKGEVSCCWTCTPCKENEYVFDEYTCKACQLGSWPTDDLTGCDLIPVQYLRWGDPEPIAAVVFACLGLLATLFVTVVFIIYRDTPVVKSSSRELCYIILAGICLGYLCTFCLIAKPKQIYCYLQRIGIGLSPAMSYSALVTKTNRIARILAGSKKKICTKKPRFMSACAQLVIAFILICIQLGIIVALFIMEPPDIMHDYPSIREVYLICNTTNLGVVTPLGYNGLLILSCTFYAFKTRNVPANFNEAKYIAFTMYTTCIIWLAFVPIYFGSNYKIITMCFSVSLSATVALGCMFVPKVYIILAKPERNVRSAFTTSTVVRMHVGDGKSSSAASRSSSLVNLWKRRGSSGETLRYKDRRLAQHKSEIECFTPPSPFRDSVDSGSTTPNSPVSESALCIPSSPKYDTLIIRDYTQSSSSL

IC50 (human mGluR5d) | Kp [1] | SMILES
47 nM | 0.06 | Cc1cc(-c2nnc(N3CCC[C@@H]3c3cc(-c4cccc(C#N)c4)on3)n2C)ccn1 [Example 12.4, 3-(3-{(R)-1-[4-Methyl-5-(2-methyl-pyridin-4-yl)-4H-[1,2,4]triazol-3-yl]-pyrrolidin-2-yl}-isoxazol-5-yl)-benzonitrile]
86 nM | 0.05 | Cn1c(-c2cccnc2)nnc1N1CCC[C@@H]1c1cc(-c2cccc(C#N)c2)on1 [Example 12.6, 3-{3-[(R)-1-(4-Methyl-5-pyridin-3-yl-4H-[1,2,4]triazol-3-yl)-pyrrolidin-2-yl]-isoxazol-5-yl}-benzonitrile]

From patent publication US20070259923A1, “MGluR5 modulators IV” (AstraZeneca AB, priority 2006, published 2007)
